From patent US6713506B2, “Tea polyphenol esters and analogs thereof for cancer prevention and treatment” (University of South Florida, priority 2000, dated 2004)
“Also recorded” adds a separate entry of the source.

How the values were obtained:
p27 in MCF-7 tumors = assay: Nude mice bearing human breast MCF-7 tumors, biochemical end points; assay type: in vivo; conditions: mice pre-fed or injected into the tumors
Source text: Treatment of drinking water with green tea, a green tea polyphenol extract or EGCG, or direct injection into tumors of a solution containing a green tea polyphenol extract or EGCG, inhibits breast or other tumor growth in nude mice. In (a) it is shown that antitumor activity of tea polyphenols correlates to their potency to inhibit the proteasome activity. All mice receive a 90-day slow-release subcutaneous (s.c.) estrogen pellet (Innovative Research) in the anterior flank 7 days before tumor inoculation. In Experiment 1, mice (5 per group) are pre-fed with a solution of EGCG, EGC, ECG, EC, a green tea extract (1, 10, and 50 mg/kg) or water three times per week for 2 weeks, followed by s.c. implanting human breast MCF-7 tumor cells in nude mice above the right and left flanks (10^7 cells per flank). When tumors in the control group reach ˜1000 mm^3 the experiment is terminated. […] Evaluation of the antitumor activity of tea polyphenols is determined by measuring the change in tumor size of the treated group compared to the control group. […] Levels of p27 and Bax protein in tumor tissues are measured by Western blotting and immunohistochemistry. […] Bax localization (by immunohistochemistry), processing of caspase-3, cleavage of PARP (by Western blotting) and apoptosis (by TUNEL) are then measured. […]

[1] = system: SV-40-transformed WI-38 cells (VA-13); assay: Cell cycle analysis by flow cytometry, VA-13 cells; assay type: cell-based, human; conditions: VA-13, 10 μM
Method: (§1) FIG. 6. Cell cycle analysis. Asynchronous Jurkat, LNCaP, WI-38, and VA-13 cells are treated with 10 μM EGCG and harvested at the time points indicated. Cells are prepared and analyzed by flow cytometry as described in the The Materials and Methods section of Example 1. Growth arrest is determined by the increase in the percentage of G1 population.
(§2) Cell cycle analysis—Cell cycle analysis based on DNA content is performed as follows. Cells are harvested, counted and washed twice with PBS. Cells (5×10^6 ) are then suspended in 0.5 ml PBS, pipetted and fixed in 5 ml of 70% ethanol for at least 2 h at −20° C. Cells are centrifuged, resuspended in 1 ml of propidium iodide staining solution (50 μg propidium iodide, 100 units RNase A and 1 mg glucose per ml PBS) and incubated at room temperature for 30 min. The cells are then analyzed with FACScan (Becton Dickinson Immunocytometry, CA.), ModFit LT and WinMDI V.2.8 cell cycle analysis software (Verity Software, Topsham, Me.). The cell cycle distribution is shown as the percentage of cells containing G1, S, G2, and M DNA judged by propidium iodide staining.

[2] = target: T1, chymotrypsin-like activity in living prostate (PC-3) cancer cells (Homo sapiens, UniProt P28074); assay: Proteasome chymotrypsin-like activity in living PC-3 cells; assay type: cell-based
T1 construct: endogenous in cells; host or cells: PC-3 cells (intact)
Method: Inhibition of the proteasome activity in living cells by tea polyphenols—To measure inhibition of the chymotrypsin-like activity in living tumor cells, Jurkat T (1×10^5 cells/ml/well), MCF7 or PC-3 cells (1×10^4 cells/ml/well) are cultured in 24-well plates. These cells are first incubated for 12 h with various concentrations of EGCG, EGC, β-lactone or LLnL, followed by an additional 2 h-incubation with fluorogenic peptide substrates, Suc-Leu-Leu-Val-Tyr-AMC for the chymotrypsin-like activity and Z-Gly-Gly-Arg-AMC for the trypsin-like activity. After that, cell medium (200 μl per sample) is collected and used for measurement of free AMCs.
(b) The peptide substrate for the proteasomal chymotrypsin-like activity, Suc-Leu-Leu-Val-Tyr-AMC, is used to measure the proteasome activity in intact Jurkat, MCF-7 and PC-3 cells, which is inhibitable by co-incubation with EGCG (FIG. 16C). A similar assay is performed to measure potency and selectivity of EGCG (vs. EGC) or ECG (vs. EC) in the selected cell lines. […] After that, medium is collected and the liberated AMCs in the medium are measured by fluorometer to measure in vivo potency and selectivity of tea polyphenols.

normal human WI-38 cells = assay: Cell cycle analysis by flow cytometry, WI-38 cells; assay type: cell-based; conditions: WI-38, 10 μM
Method: as §1, §2

[3] = target: T2, proteasomal PGPH activity in Jurkat T cell extract (Homo sapiens, UniProt P28072); assay: Proteasome PGPH activity in Jurkat T cell free extract; assay type: biochemical; conditions: EGCG 10 μM
T2 construct: endogenous in cells; host or cells: Jurkat T cell whole cell extract
Method: Inhibition of the proteasome activity with cell free extracts by tea polyphenols—The whole cell extract (3.5 μg) from Jurkat T cells is incubated for 90 min at 37° C. with 20 μM of a fluorogenic peptide substrate, Suc-Leu-Leu-Val-Tyr-AMC (for the chymotrypsin-like activity), Z-Leu-Leu-Glu-AMC [peptidyl-glutamyl peptide-hydrolyzing (PGPH) activity; Calbiochem], and Z-Gly-Gly-Arg-AMC (for the trypsin-like activity; Bachem), in 100 μl of the assay buffer with or without 10 μM EGCG or EGC. The hydrolyzed AMCs are quantified as described above.

O=C(O[C@@H]1Cc2c(O)cc(O)cc2O[C@@H]1c1cc(O)c(O)c(O)c1)c1cc(O)c(O)c(O)c1 [EGCG, (−)-epigallocatechin-3-gallate]
p27 levels in tumors (p27 in MCF-7 tumors): Increased p27 levels
increase in G1 population ([1]; 12 h): 21%
increase in G1 population ([1]; 36 h): 33%
inhibition of chymotrypsin-like activity in living PC-3 cells (in words) [2]: inhibitable; also recorded: inhibits
decrease in G1 population (normal human WI-38 cells; 12 h): 22%
increase in G2/M population (normal human WI-38 cells; 12 h): 6%
increase in S population (normal human WI-38 cells; 12 h): 16%
increase in G1 population (normal human WI-38 cells; 36 h): 22%
inhibition of proteasomal PGPH activity (in words) [3]: potently inhibits
